Source: BindingDB's records for doi:10.1021/bi4011286 (University of Michigan, 2013)

Legend:
DNA primase [1] = target: T1, DNA primase (Bacillus anthracis, UniProt A0A6L8PXB3); assay: Quatitative Inhibition Analysis Assay; settings: pH 8.8
T1 sequence (A0A6L8PXB3 whole entry): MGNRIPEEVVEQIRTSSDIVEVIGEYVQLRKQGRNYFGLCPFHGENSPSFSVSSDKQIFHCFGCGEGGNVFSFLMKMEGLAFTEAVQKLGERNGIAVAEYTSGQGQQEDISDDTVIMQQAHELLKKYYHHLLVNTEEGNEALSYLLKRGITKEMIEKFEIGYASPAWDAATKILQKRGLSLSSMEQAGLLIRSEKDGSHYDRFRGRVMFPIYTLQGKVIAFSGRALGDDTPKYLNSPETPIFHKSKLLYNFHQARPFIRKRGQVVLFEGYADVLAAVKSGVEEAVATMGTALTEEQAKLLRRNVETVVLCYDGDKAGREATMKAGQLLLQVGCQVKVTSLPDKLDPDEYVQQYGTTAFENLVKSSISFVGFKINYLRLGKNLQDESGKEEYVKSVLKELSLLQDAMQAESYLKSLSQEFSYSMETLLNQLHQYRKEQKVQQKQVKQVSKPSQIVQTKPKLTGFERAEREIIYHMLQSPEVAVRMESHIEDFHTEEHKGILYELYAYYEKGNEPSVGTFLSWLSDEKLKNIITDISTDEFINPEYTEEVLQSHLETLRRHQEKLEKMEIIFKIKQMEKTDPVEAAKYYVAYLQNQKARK
Protocol: (§1) The reaction mixture contained DNA (1.25 uM or as specified), NTP (110 uM or as specified), 50 mM NaCl, 150 mM potassium glutamate, buffer [20 mM CAPS (pH 8.8) or as specified], and divalent metals (2 mM Mn2+ and 1 mM Mg2+). The assay was performed in 96-well plates with 4 uM Ba DnaG.

DNA primase [2] = target: T2, DNA primase (Mycobacterium tuberculosis (strain CDC 1551 / Oshkosh), UniProt P9WNW0); assay: Quatitative Inhibition Analysis Assay; settings: pH 8.8
T2 sequence (P9WNW0 whole entry): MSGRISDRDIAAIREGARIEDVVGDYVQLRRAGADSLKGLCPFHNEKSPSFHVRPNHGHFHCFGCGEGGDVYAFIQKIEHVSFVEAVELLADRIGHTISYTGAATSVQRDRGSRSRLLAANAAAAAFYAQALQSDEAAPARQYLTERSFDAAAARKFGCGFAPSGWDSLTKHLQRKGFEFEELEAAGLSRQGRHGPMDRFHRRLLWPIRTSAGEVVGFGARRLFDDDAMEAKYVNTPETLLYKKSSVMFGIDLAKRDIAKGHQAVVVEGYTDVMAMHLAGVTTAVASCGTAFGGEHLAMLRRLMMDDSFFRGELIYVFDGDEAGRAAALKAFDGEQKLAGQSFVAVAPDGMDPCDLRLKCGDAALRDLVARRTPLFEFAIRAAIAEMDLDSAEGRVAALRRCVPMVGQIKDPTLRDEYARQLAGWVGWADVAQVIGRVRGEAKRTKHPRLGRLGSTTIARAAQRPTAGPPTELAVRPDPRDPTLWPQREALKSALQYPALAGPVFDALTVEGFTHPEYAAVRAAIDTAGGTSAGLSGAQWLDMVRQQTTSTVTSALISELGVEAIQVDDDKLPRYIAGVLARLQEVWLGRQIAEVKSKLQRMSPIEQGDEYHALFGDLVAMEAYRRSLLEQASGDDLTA
Protocol: as §1

Structure (SMILES)	IC50 (DNA primase [1])	IC50 (DNA primase [2])
COc1cccc2c1C(=O)c1c(O)c3c(c(O)c1C2=O)C[C@@](O)(C(=O)CO)C[C@@H]3O[C@H]1C[C@H](N)[C@H](O)[C@H](C)O1 [Adriamycin]	4.4 µM	9.3 µM
CCN(CC)CCOc1ccc2c(c1)C(=O)c1cc(OCCN(CC)CC)ccc1-2 [Amixin IC]	7.1 µM	69 µM
O=c1oc2c(O)c(O)cc3c(=O)oc4c(O)c(O)cc1c4c23 [Elagic Acid]	> 100 µM	–
C[C@H]1COc2c(N3CCN(C)CC3)c(F)cc3c(=O)c(C(=O)O)cn1c23 [Levaquin]	75 µM	–
Cc1ccc(C(=O)Nc2ccc(S(=O)(=O)O)c3cc(S(=O)(=O)O)cc(S(=O)(=O)O)c23)cc1NC(=O)c1cccc(NC(=O)Nc2cccc(C(=O)Nc3cc(C(=O)Nc4ccc(S(=O)(=O)O)c5cc(S(=O)(=O)O)cc(S(=O)(=O)O)c45)ccc3C)c2)c1 [Suramin hexasodium]	8.2 µM	–
